Source: patent US11160807B1, “Methods, compositions and devices for treating cancer with illudofulvenes” (AF Chemicals, LLC, priority 2018, dated 2021)

Columns and labels:
[1] = test system: NCI DTP 60 cell line panel; experiment: NCI DTP 60 Cell Line screen: Growth Inhibition (GI50), Total Growth Inhibition (TGI), Lethal Concentration (LC50/LD); type: cell-based, human; details: mean over NCI DTP 60 cell line panel; for GI50: growth inhibition; for Mean LD50 cytotoxic: lethal concentration dose (cytotoxic effect); for Mean TGI cytostatic: total growth inhibition (cytostatic effect)
Method: In particular, an algorithm based on the obtained in vitro cell culture values (i.e. growth inhibition values (GI50), or the total growth inhibition (TGI), or the lethal concentration (LC50)) of cell lines (e.g., NCI60 cells) subjected to treatment with an illudofulvene, and gene expression is determined in these same cell lines (e.g., by microarray analysis, reverse transcriptase polymerase chain reaction (RT-PCR), quantitative real-time PCR (qPCR), or next generation sequencing). After normalization, genes with, e.g., a Pearson correlation coefficient greater than about 0.5 or below about −0.5 to one of the obtained in vitro cell culture values, can be classified as biomarkers of sensitivity or resistance, respectively. A probability or significance value can also be calculated for the correlation between the obtained in vitro cell culture values (i.e. growth inhibition values (GI50), or the total growth inhibition (TGI), or the lethal concentration (LC50)) and the normalized expression of a specific gene.
One can determine the growth inhibition (GI50), total growth inhibition (TGI), or lethal concentration (LC50) for a drug for each of the cell lines in the NCI DTP 60 cell line panel. One can use these 3 values to search for correlations against all gene expressions in all cell lines using the NCI's publicly available CELL MINER Software. Alternatively, one can down load for a specific gene its relative expression in each of the 60 cell lines using the NCI's publicly available COMPARE Software, and performs the expression for a specific gene.

[2] = test system: MV522 Target Cell Line; experiment: 48 hour exposure, growth or viability by Trypan Blue Exclusion assay; type: cell-based; details: MV522, 48 h, read-out: Mean IC50 value, MV522 Target Cell Line, 48 hr exposure
Method: (§1) In various embodiments of the invention, the MV522 cell line represents a “target” cell line. […] The two hour toxicity data represents the concentration of a given analog for which a two hour exposure will inhibit 50% of the DNA synthesis activity in a given cell line. The 48 hour exposure data represents the concentration at which a given analog with a 48 hour exposure will inhibit the growth or viability in a given cell line as defined by the standard Trypan Blue Exclusion assay.

[3] = test system: NIH3T3 MYC+ and NIH3T3 MYC-null; experiment: influence of c-myc expression on cytotoxicity, Cell Count (%); details: for effect of c-myc (MYC) expression on cellular sensitivity: FIG. 4A-4D, cisplatin data not shown
[4] = test system: MCF7 (ER positive); experiment: cytotoxic IC50, 2 hour exposure; details: Homo sapiens, MCF7, 2 h, read-out: cytotoxic IC50 values, MCF7 (ER positive)
[5] = test system: B cell leukemias
[6] = test system: Myeloid leukemias
[7] = test system: 8392B Nontarget Cell Line; experiment: two hour toxicity: 2 hr exposure, concentration inhibiting 50% of DNA synthesis activity; type: cell-based; details: at 26,000 nM ([…] μM)
Method: as §1

[8] = test system: MV522 cell line (a lung-derived adenocarcinoma cell line); experiment: tumor regression (FIG. 1); type: in vivo; details: MV522, FIG. 1
[9] = test system: XP-A, XP-B, XP-C, XP-D, XP-E, XP-F, CS-A, CS-B, ERCC1, ERCC5; experiment: DNA damage profile by DNA repair gene; type: cell-based; details: symbols not defined
[10] = test system: Breast carcinomas
[11] = test system: Mechanism of Multi-drug Resistance; experiment: multidrug resistance: resistance by mechanism of multi-drug resistance
[12] = test system: Ovarian
[13] = test system: Lung carcinomas
[14] = test system: T cell leukemias
[15] = test system: Prostate carcinomas
[16] = test system: Epidermoid
[17] = test system: Fibroblasts (normal)
[18] = test system: c-myc positive daughter line Myc/Rat1A (Myc/ER); experiment: role of c-myc in cytotoxicity, c-myc expression induced by 4-hydroxytamoxifen (4HOT); type: cell-based; details: FIG. 2
Description: The expression of c-myc in this cell line is under the control of a modified receptor that responds to 4-hydroxytamoxifen (4HOT).

CC(=O)OCC1(C)C=C2C(=O)[C@](C)(O)C3(CC3)C(C)=C2C1O (stereo partly shown) [Illudofulvene Analog 0159]
GI50 [1]: 117 nM
Mean LD50 cytotoxic [1]: 14,790 nM
Mean TGI cytostatic [1]: 2,090 nM

CC1=C(COCCO)C2=C(C)C3(CC3)[C@@](C)(O)C(=O)C2=C1 [Analog 022]
IC50 [2]: 680 ± 180 nM

CC[C@H](C)[C@H](NC(=O)[C@H]1CCCCN1C)C(=O)N(COC(=O)CC(C)C)[C@H](C[C@@H](OC(C)=O)c1nc(C(=O)N[C@@H](Cc2ccc(O)cc2)C[C@H](C)C(=O)O)cs1)C(C)C [Tubulysin A]
Mean LD50 cytotoxic [1]: >10,000 nM

CC[C@@]1(O)C(=O)OCc2c1cc1n(c2=O)Cc2cc3c(CN(C)C)c(O)ccc3nc2-1 [topotecan]
effect of c-myc (MYC) expression on cellular sensitivity [3]: did not alter cellular sensitivity
effect of c-myc (MYC) expression on cellular sensitivity ([3]; listed as Topotecan): not sensitive

CC1=C(CCC(=O)Oc2ccc3c(c2)CCC2C3CC[C@]3(C)C(O)CCC23)C2=C(C)C3(CC3)[C@@](C)(O)C(=O)C2=C1 (stereo partly shown) [Analog 108]
IC50 [4]: 14100 ± 2800 nM

N.N.[Cl][Pt][Cl] [cisplatin]
effect of c-myc (MYC) expression on cellular sensitivity [3]: did not alter cellular sensitivity

CC1=C2C(=CC(C)(C)[C@@H]2O)C(=O)[C@](C)(O)C12CC2 [Illudin M, illudin M, reference compound]
Mean LD50 cytotoxic [1]: 291 nM

CO[C@@]12[C@H](COC(N)=O)C3=C(C(=O)C(C)=C(N)C3=O)N1C[C@@H]1N[C@@H]12 [mitomycin C]
effect of c-myc (MYC) expression on cellular sensitivity [3]: did not alter cellular sensitivity
effect of c-myc (MYC) expression on cellular sensitivity ([3]; listed as Mitomycin C): not sensitive

COC(=O)C1=C(C(=O)OC)C23C=C(C)C1C2=C(C)C1(CC1)[C@@](C)(O)C3=O (stereo partly shown) [Illudofulvene Analog 0142]
GI50 [1]: 447 nM
Mean LD50 cytotoxic [1]: 53,700 nM
Mean TGI cytostatic [1]: 4,667 nM

CC1=C(CO)C2=C(C)C3(CC3)[C@@](C)(O)C(=O)C2=C1 [Analog 002]
Cytotoxicity? 2 hr incubation [5]: No
Cytotoxicity? 48 hr incubation [5]: Yes
Cytotoxicity? 2 hr incubation [6]: Yes
Cytotoxicity? 48 hr incubation [6]: Yes
inhibitory effect on the nontarget 8392B cell line [7]: no inhibitory effect
tumor regression [8]: induce tumor regression
DNA damage profile ([9]; Gene XP-C): 0
DNA damage profile ([9]; Gene XP-E): 0
Cytotoxicity? 2 hr incubation [10]: Yes
Cytotoxicity? 48 hr incubation [10]: Yes
Resistance to Analog 001/Analog 002 ([11]; Mechanism: BRCA status): No
Resistance to Analog 001/Analog 002 ([11]; Mechanism: Bcl-2 expression): No
Resistance to Analog 001/Analog 002 ([11]; Mechanism: DNA repair): No
Resistance to Analog 001/Analog 002 ([11]; Mechanism: Gp170/MDR1): No
Resistance to Analog 001/Analog 002 ([11]; Mechanism: Gp180/MRP): No
Resistance to Analog 001/Analog 002 ([11]; Mechanism: MGMT expression): No
Resistance to Analog 001/Analog 002 ([11]; Mechanism: MVP/LRP (vault)): No
Resistance to Analog 001/Analog 002 ([11]; Mechanism: Microtubulin alteration): No
Resistance to Analog 001/Analog 002 ([11]; Mechanism: Myc expression): No
Resistance to Analog 001/Analog 002 ([11]; Mechanism: P21 status): No
Resistance to Analog 001/Analog 002 ([11]; Mechanism: P53 status): No
Resistance to Analog 001/Analog 002 ([11]; Mechanism: Thiol content/GST pi): No
Resistance to Analog 001/Analog 002 ([11]; Mechanism: Topoisomerase I): No
Resistance to Analog 001/Analog 002 ([11]; Mechanism: Topoisomerase II): No
dependence of activity on common resistance mechanisms ([11]; multi-medicant resistance phenotype, Bcl-2 over expression, p53 and p21/WAF1 mutations): independent
effect of c-myc (MYC) expression on cellular sensitivity [3]: become sensitive
increase in sensitivity conferred by expression of cellular c-myc ([3]; NIH3T3 MYC+ compared to parental c-myc null NIH3T3, based on decrease in cell count, FIG. 3): greater than 10 fold
Cytotoxicity? 2 hr incubation [12]: Yes
Cytotoxicity? 48 hr incubation [12]: Yes
Cytotoxicity? 2 hr incubation [13]: Yes
Cytotoxicity? 48 hr incubation [13]: Yes
Cytotoxicity? 2 hr incubation [14]: No
Cytotoxicity? 48 hr incubation [14]: Yes
Cytotoxicity? 2 hr incubation [15]: Yes
Cytotoxicity? 48 hr incubation [15]: Yes
Cytotoxicity? 2 hr incubation [16]: Yes
Cytotoxicity? 48 hr incubation [16]: Yes
Cytotoxicity? 2 hr incubation [17]: No
Cytotoxicity? 48 hr incubation [17]: Yes
sensitivity on expression of c-myc in the presence of 4HOT [18]: become sensitive

CCOCC1=C(C)C=C2C(=O)[C@](C)(O)C3(CC3)C(C)=C21 [Illudofulvene Analog 0016]
GI50 [1]: 102 nM
Mean LD50 cytotoxic [1]: 4,270 nM
Mean TGI cytostatic [1]: 1,070 nM
